According to publication PMC8827060, “Identification and characterization of L- and D-lactate-inducible systems from Escherichia coli MG1655, Cupriavidus necator H16 and Pseudomonas species” (Scientific Reports, 2022):

Tested on: T1, CnGntR
T1 construct: gene gntR; full-length TR gene with PH16_RS19190-mRFP1 reporter on plasmid pEA007; host C. necator H16; regulator of cluster H16_RS19175-H16_RS19195, its own locus tag inferred
Test: mRFP1 reporter dose-response in cells, Hill fit
Assay type: cell-based, Cupriavidus necator
Settings: inducer of transcriptional regulator; half-maximal reporter output; host C. necator H16; minimal medium with 0.4% gluconate, 30 °C, 6 h; Hill coefficient 1.19; read-out: Km
From the text: mRFP1 reporter dose-response in cells, Hill fit on CnGntR

C[C@H](O)C(=O)O [L-lactate]
EC50: 670 ± 210 µM
